These results are taken from ChEMBL document CHEMBL1201862, “PubChem BioAssay data set” (2004).

The source made the active and inactive calls.

Test [1] concerns the target 5-hydroxytryptamine receptor 2A (Mus musculus, UniProt P35363). Format: functional, cell-based.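 Note: CHO-K1 cells with tagged receptor and beta-arrestin; agonist potency measured as compound-induced activation of the receptor.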
Test [2] concerns the target T1, Mu-type opioid receptor (Homo sapiens, UniProt P35372). Format: functional, cell-based.
Test [3] in a line: HEK293 Cytotoxicity Assay Measured in Cell-Based System Using Plate Reader - 7071-01_Inhibitor_Dose_CherryPick_Activity_Set2. Format: functional.
The next test concerns HeLa. Put plainly: viability loss in HeLa cells – cell-based, ATP luminescence, cherry-pick samples, cytotoxicity control, dose response (AID 687004). Format: functional. As to conditions: Homo sapiens.
Another test has as its system HEK293. Put plainly: viability loss in HEK293T cells – cell-based, ATP luminescence, cherry-pick samples, cytotoxicity control, dose response (AID 687005).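 Note: cells exposed to compound for 48 hours.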 Format: functional. As to conditions: Homo sapiens.
The target in test [4] is T2, Calpain-2 catalytic subunit (Sus scrofa, UniProt P43367).
T2 sequence (P43367 whole entry): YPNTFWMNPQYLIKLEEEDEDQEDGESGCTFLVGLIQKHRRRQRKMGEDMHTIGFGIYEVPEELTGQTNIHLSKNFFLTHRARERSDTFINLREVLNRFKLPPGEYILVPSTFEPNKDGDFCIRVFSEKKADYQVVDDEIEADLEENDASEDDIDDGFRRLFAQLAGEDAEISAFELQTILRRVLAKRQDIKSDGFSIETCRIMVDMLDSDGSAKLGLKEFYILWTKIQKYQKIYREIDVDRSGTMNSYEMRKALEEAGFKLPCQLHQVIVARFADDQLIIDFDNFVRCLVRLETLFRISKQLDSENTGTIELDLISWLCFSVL
The test can be described thus: m-calpain protease blockers, concentration series – biochemical, fluorogenic peptide substrate, dose response (AID 1420). Format: functional.

In a further test the target is Kallikrein-7 (Homo sapiens, UniProt P49862). Put plainly: Fluorescence Intensity-based biochemical primary high throughput dose response assay to identify activators of kallikrein-7 (K7) zymogen.
Chain of Kallikrein-7 (P49862 whole entry): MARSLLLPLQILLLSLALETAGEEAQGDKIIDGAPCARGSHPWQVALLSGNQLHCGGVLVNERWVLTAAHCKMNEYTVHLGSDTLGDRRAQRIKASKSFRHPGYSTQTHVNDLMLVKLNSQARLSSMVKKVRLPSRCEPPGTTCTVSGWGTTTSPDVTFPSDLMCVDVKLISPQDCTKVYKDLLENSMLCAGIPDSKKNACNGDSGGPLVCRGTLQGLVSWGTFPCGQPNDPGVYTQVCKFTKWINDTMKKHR
Test [5] in a line: optical artefact potency, substrate without enzyme – biochemical, fluorescence intensity, triplicate, artefact control for kallikrein-7 zymogen activator project, dose response (AID 720493).
The nature of test [6]: loss of viability in embryonic kidney cells – cell-based, HEK293T, ATP luminescence, dry powder, cytotoxicity control, dose response (AID 652119). Format: functional. As to conditions: HEK293.
In test [7] the target is Protein disulfide-isomerase (Homo sapiens, UniProt P07237). Put plainly: inhibition of PDI-mediated insulin reduction – biochemical, turbidity, dry powder samples, set 2, confirmation (AID 652146).
Chain of Protein disulfide-isomerase (P07237 whole entry): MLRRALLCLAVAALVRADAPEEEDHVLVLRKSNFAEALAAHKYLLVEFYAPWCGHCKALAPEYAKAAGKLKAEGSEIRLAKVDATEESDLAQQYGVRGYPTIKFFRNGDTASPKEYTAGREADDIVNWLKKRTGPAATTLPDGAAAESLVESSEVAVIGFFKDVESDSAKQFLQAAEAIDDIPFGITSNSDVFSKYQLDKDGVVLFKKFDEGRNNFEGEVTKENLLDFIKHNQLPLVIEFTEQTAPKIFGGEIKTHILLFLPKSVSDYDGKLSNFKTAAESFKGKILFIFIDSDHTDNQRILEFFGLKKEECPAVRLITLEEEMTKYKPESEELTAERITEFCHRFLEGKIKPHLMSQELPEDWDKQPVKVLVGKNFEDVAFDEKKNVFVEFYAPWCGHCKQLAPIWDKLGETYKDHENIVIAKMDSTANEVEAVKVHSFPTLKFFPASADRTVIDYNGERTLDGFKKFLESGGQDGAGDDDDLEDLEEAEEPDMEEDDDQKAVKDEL
Test [8] concerns the target T3, CAAX prenyl protease 2 (Saccharomyces cerevisiae S288c, UniProt Q03530).
T3 sequence (Q03530 whole entry): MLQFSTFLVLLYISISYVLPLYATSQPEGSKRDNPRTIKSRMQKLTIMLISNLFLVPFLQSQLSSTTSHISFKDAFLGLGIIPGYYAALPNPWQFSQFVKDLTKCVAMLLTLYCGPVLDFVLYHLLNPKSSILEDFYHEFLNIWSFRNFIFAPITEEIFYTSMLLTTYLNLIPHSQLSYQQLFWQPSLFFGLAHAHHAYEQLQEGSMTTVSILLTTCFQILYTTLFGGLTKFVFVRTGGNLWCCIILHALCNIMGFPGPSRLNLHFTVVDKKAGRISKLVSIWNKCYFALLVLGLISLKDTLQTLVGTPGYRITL
Format: biochemical.

Test [9] can be described thus: cells. The note with it: HEK293.
Test [10] has as its target T4, CAAX prenyl protease 2 (Homo sapiens, UniProt Q9Y256).
T4 sequence (Q9Y256 whole entry): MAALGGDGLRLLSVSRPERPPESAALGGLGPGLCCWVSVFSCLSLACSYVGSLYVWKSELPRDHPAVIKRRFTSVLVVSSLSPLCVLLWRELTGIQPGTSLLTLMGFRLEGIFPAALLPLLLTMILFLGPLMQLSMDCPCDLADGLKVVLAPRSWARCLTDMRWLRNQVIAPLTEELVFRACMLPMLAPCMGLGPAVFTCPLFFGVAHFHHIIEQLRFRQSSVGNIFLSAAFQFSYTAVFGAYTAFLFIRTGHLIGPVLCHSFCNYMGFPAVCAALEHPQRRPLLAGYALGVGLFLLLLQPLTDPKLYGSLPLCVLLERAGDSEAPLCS
Put plainly: inhibition of Ras-converting CAAX protease Rce1 – biochemical, yeast membranes, quenched-peptide fluorescence, cherry-pick, dose response (AID 588849).

The nature of test [11]: cells.
Test [12] can be described thus: viability loss in HepG2 liver cells – cell-based, ATP luminescence, cherry-pick, set 6, cytotoxicity control, dose response (AID 1053125). Format: functional.
The next test deals with Trypsin (Sus scrofa, UniProt P00761). The test can be described thus: trypsin protease activity blockade – biochemical, quenched peptide fluorescence, cherry-pick, selectivity assay for Rce1 protease inhibitor project, dose response (AID 488789).
Chain of Trypsin (P00761 whole entry): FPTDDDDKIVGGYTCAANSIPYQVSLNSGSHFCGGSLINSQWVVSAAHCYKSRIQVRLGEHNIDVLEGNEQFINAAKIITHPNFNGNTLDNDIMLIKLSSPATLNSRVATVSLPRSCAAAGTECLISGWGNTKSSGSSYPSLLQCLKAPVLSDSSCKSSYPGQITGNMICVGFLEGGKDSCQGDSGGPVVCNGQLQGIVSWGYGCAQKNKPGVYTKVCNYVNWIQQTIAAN
The nature of test [13]: cells. As to conditions: A549.
The nature of test [14]: viability of uninfected HEp-2 cells – cell-based, HTS, cytotoxicity control for RSV inhibitor project, dose response (AID 2410). Format: functional. The note with it: human respiratory syncytial virus.
Test [15] in a line: Luminescence Cell-Based Dose Retest to Confirm Inhibitors of Cancer Stem Cells. [Related pubchem assays (depositor defined):AID2717, AID2721]. As to conditions: Homo sapiens. Format: functional.
Test [16] has as its target T5, Beta-2 adrenergic receptor (Homo sapiens, UniProt P07550). The test can be described thus: ADRB2 activation measured by internalization – cell-based, FAP fluorogen, flow cytometry, cherry pick 1, dose response (AID 588763). Format: functional.
The target in test [17] is T5, Beta-2 adrenergic receptor. The test can be described thus: Dose response for HTS for Beta-2AR agonists via FAP method from Powderset3. Format: functional.
Test [18] in a line: A Cell-Based Confirmatory Screen for Compounds that Inhibit VEEV, TC-83 (7). Format: functional.
A short description of test [19]: mouse embryonic fibroblast toxicity – cell-based, plate reader, dry powder, set 2, cytotoxicity control, dose response (AID 652280). Format: functional. As to conditions: NIH3T3.
The nature of test [20]: Trypanosoma cruzi growth suppression in host cells – NIH3T3 host cells, beta-gal luminescence, confirmation (AID 2044).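 Note: intracellular parasites grown in NIH/3T3 mouse fibroblasts as host cells; luminescent beta-galactosidase reporter signal from transgenic T. cruzi replicating inside host cells; inhibitors lower the luminescence signal.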 Format: functional, cell-based.
Test [21] can be described thus: NIH3T3 cell viability loss – ATP luminescence, mouse fibroblasts, counter-screen, dose response (AID 2010).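 Note: cells exposed to compound for about 90 hours before reading.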 Format: functional, cell-based.
A short description of test [22]: potency of ADAM10 substrate cleavage blockers – biochemical, QFRET, dose response (AID 743254).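 Note: ADAM10 enzyme with the DM2 quenched FRET peptide as substrate; EDANS fluorescence gain as the protease cuts the substrate; inhibitor potency against ADAM10 proteolytic activity.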
The target in test [23] is Disintegrin and metalloproteinase domain-containing protein 17 (Homo sapiens, UniProt P78536). Put plainly: inhibition of ADAM17 substrate cleavage – biochemical, quenched FRET substrate, counter-screen for ADAM10 exosite inhibitor project, dose response (AID 743253). In general terms: The purpose of a counterscreen is to sort out artefacts and off-target activity.
A short description of test [24]: CTGF mRNA reduction in DLD1 cells – cell-based, DLD1 colon cancer, RT-qPCR, cherry-pick, dose response (AID 1053122). Format: functional. The note with it: Cancer cell lines. (Quantitative PCR measures a nucleic acid by following its amplification.)
Test [25] is described as follows: inhibition of mouse IRAP aminopeptidase activity – biochemical, Leu-AMC fluorescence, cherry-picked samples, set 2, selectivity assay for ERAP1 modulator project, dose response (AID 743340).
Test [26] addresses T1, Mu-type opioid receptor. The test can be described thus: Late-stage results from the probe development effort to identify antagonists of OPRK1: luminescence-based cell-based dose response OPRM1 counterscreen. Format: functional.
Test [27] concerns the target Delta-type opioid receptor (Homo sapiens, UniProt P41143). The test can be described thus: Late-stage results from the probe development effort to identify antagonists of OPRK1: fluorescence-based cell-based dose response OPRD1 counterscreen. Format: functional.
A further test concerns the target Albumin (Bos taurus, UniProt P02769). The test can be described thus: Counterscreen for inhibitors of T-cell receptor (TCR)-CD3 interaction: Fluorescence-based biochemical high throughput dose response assay to identify inhibitors of T-cell receptor (TCR)-CD3 interaction using a TAMRA-labeled BSA probe. Format: functional.
The nature of test [28]: anti-trypanosomal activity in BESM host cells – imaging, CA-I/72 strain, bovine embryo skeletal muscle, dry powder, dose response (AID 651885). Format: functional, cell-based.
The nature of test [29]: viability loss in HepG2 cells – cell-based, luminescence, dry powder, set 5, cytotoxicity control, dose response (AID 743185). Format: functional.
Test [30] has as its target Metabotropic glutamate receptor 5 (Rattus norvegicus, UniProt P31424). Put plainly: Identification of a glycine sulfonamide based non-MPEP site positive allosteric potentiator (PAM) of mGlu5 (calcium_assay). Format: functional.

T5 sequence (P07550 whole entry): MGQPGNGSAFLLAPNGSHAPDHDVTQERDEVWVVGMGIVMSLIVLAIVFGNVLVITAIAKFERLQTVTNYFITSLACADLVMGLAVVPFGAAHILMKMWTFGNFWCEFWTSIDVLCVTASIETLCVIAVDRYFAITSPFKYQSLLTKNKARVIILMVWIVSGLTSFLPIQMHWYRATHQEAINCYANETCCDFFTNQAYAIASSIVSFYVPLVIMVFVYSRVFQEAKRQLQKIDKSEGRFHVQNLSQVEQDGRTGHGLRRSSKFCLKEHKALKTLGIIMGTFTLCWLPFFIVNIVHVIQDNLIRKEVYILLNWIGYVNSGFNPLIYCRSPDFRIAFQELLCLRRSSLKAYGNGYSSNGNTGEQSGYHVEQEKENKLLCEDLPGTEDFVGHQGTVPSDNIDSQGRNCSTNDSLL
T1 sequence (P35372 whole entry): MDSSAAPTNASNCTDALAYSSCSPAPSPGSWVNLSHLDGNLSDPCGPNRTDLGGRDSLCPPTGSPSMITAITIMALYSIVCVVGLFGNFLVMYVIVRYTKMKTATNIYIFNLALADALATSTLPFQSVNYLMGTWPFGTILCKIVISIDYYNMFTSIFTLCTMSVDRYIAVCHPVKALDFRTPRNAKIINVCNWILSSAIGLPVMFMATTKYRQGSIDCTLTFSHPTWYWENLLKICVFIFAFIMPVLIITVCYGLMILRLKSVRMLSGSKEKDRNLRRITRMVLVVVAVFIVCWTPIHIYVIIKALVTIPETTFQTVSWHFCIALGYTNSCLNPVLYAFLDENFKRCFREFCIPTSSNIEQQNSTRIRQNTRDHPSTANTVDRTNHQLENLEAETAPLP
Chain of Metabotropic glutamate receptor 5 (P31424 whole entry): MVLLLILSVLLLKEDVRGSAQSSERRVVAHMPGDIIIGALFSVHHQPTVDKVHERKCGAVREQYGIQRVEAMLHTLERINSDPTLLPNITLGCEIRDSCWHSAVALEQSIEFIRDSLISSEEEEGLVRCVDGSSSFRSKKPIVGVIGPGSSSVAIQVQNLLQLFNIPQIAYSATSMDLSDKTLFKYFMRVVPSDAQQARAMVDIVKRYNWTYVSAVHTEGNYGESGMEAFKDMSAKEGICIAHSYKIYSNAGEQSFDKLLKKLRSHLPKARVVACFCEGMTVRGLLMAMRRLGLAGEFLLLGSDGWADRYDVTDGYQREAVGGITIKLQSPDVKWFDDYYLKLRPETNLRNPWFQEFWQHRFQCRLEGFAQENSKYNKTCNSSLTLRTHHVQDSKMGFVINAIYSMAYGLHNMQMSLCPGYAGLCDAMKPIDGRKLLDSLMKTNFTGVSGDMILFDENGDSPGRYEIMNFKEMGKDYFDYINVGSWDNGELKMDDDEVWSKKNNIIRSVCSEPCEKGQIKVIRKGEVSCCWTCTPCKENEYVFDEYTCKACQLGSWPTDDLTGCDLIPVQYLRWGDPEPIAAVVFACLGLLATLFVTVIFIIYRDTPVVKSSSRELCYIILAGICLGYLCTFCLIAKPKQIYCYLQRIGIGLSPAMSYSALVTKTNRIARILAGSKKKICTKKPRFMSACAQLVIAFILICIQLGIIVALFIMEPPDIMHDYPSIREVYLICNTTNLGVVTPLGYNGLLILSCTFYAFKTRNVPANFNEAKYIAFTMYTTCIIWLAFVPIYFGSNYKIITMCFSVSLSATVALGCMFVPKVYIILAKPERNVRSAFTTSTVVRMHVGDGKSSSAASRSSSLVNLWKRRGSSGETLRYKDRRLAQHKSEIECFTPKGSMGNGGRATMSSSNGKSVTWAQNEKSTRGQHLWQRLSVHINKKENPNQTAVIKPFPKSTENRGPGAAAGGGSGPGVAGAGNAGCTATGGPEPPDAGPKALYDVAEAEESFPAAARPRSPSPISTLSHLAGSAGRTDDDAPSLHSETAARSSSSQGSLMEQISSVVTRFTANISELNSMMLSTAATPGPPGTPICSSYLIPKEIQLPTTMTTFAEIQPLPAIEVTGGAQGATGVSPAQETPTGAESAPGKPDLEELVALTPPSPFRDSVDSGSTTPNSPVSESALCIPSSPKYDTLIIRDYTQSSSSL
Chain of Delta-type opioid receptor (P41143 whole entry): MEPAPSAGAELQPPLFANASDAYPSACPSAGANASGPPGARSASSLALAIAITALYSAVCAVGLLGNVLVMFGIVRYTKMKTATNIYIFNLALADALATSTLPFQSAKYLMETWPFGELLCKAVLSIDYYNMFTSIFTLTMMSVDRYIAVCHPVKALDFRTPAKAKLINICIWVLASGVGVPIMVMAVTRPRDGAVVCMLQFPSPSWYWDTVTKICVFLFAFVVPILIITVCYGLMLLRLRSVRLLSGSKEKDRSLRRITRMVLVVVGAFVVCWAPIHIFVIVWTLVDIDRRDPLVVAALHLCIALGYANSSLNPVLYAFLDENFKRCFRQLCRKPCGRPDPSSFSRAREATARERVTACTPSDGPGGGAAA
Chain of Albumin (P02769 whole entry): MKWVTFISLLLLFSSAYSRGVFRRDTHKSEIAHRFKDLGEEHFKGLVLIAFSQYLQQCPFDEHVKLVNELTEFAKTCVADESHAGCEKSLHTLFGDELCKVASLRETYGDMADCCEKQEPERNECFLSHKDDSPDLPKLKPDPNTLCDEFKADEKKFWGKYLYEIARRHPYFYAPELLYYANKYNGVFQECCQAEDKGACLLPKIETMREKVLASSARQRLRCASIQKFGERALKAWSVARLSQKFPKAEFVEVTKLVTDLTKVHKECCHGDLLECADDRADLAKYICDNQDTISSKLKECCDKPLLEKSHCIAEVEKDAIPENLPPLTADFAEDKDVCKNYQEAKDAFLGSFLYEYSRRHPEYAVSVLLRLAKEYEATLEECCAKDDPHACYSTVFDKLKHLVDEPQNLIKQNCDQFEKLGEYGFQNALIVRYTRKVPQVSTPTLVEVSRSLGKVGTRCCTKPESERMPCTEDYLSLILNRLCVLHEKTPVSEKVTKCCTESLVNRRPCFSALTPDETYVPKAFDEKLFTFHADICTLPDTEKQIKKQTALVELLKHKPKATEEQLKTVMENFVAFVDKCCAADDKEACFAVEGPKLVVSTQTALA
Chain of 5-hydroxytryptamine receptor 2A (P35363 whole entry): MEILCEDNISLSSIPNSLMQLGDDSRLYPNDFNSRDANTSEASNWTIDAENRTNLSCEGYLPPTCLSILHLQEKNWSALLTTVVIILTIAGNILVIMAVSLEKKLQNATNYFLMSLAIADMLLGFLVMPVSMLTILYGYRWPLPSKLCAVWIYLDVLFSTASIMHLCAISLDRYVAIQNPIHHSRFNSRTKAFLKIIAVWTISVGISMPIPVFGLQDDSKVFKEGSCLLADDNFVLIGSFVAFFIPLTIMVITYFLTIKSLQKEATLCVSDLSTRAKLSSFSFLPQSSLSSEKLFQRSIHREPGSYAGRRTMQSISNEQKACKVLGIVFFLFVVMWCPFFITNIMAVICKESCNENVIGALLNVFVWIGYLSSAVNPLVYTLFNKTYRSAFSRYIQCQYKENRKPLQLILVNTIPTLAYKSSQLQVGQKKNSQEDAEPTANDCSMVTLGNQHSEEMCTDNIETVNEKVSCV

As to `CC(C)(C)C1CCC(OCC(O)CN2CCN(c3ccccn3)CC2)CC1` (configuration not stated), the EC50 in test [1] is 0.548 µM (active); on Mu-type opioid receptor [2], 92.5 µM (inactive).

With `C[C@@H](NC(=O)C[C@@H]1CC[C@@H]2[C@H](COC[C@H](O)CN2Cc2cc(F)ccc2F)O1)c1ccccc1`, the AC50 in [3] is 5.05 µM (active); in the test on HeLa, > 52 µM (inactive); in the test with HEK293, 5.05 µM (active).

Consider `COc1ccc2c(c1)C(=O)CC(O)(C(F)F)O2` (configuration not stated), for which the concentration for half-maximal inhibition (IC50) in [4] was 8.34 µM (not active). Also, the EC50 at Kallikrein-7 is 16.5 µM (inactive); in test [5] it was > 7.73 µM (active).

In the case of `C=CCOc1ccc(CN2CCC(CCOc3ccccc3)(C(=O)NCC)CC2)cc1Cl`, the AC50 in test [6] was > 52 µM (inactive); in [7], > 30 µM (inactive).

Regarding `COC(=O)C1=CN(CC2CCCO2)C=C(C(=O)OC)C1c1cccc(O)c1` (configuration not stated), the AC50 on CAAX prenyl protease 2 [8] is 10.6 µM (active); in the test “cells [9]” it was > 52 µM (inactive); at CAAX prenyl protease 2 [10], 2.08 µM (active); in “cells [11]”, 11.1 µM (active); in test [12], > 52 µM (inactive); on Trypsin, 9.88 µM (active).

Take `CCN1CCc2c(sc(NC(=O)Nc3ccc(Cl)c(Cl)c3)c2C(N)=O)C1`: the values for the AC50 (in “cells [13]”; in “cells [9]”; in test [12]) were 15.3 µM (active), 15.2 µM (active) and 15.4 µM (active), respectively. In test [14], the CC50 was 10.4 µM (active).

Regarding `Cc1ncc(CN2CCCC(C(=O)Nc3ccc(-c4cccc(F)c4)cc3)C2)s1` (configuration not stated), the AC50 in test [15] is 6.84 µM (active). In addition, the EC50 in test [16] was 3.37 µM (active); in [17] it was 0.731 µM (active).

Consider `O=c1c2cc(F)c(F)cc2nc(CN2CCNCC2)n1-c1ccccc1`, for which the IC50 in [18] was 22.4 µM (active).

Regarding `Cc1cccc(-c2ccc([C@H]3[C@H](CO)N4CCCCN(CCC(F)(F)F)C[C@@H]34)cc2)c1`, the AC50 in test [19] is 3.67 µM (active).

Regarding `O=S(=O)(c1ccc(NC(=S)NCCC(c2ccccc2)c2ccccc2)cc1)N1CCOCC1`, the EC50 is 1.86 µM (active) in [20] and > 30 µM (not active) in [21]. Further, the IC50 was 13.2 µM (inactive) in test [22] and > 69.5 µM (inactive) in [23].

As to `O=C(c1cccc(F)c1)N1CCCCN2[C@H](CO)[C@H](c3ccc(C#CC4(O)CCCC4)cc3)[C@@H]2C1`, the AC50 in [24] was 2.86 µM (active).

On to `C[C@H]1CN([C@@H](C)CO)C(=O)c2cccc(NC(=O)Nc3ccc(C(F)(F)F)cc3)c2O[C@@H]1CN(C)CC1CC1`, for which the AC50 in test [25] was 16 µM (active).

Take `COC(=O)c1cc(Br)cnc1N1CCC(NC2CCCCC2)CC1`: the IC50 at Mu-type opioid receptor [26] was 1 µM (active); in test [27] it was 19 µM (inactive).

Turning to `CN=C(S)NNC(=O)c1cccn(Cc2ccc(Cl)c(Cl)c2)c1=O`, the IC50 on Albumin was > 94 µM (inactive).

In the case of `C[C@@H]1CN([C@@H](C)CO)C(=O)c2cccc(NC(=O)c3ccncc3)c2O[C@H]1CN(C)Cc1ccc(C(=O)O)cc1`, the IC50 in test [28] is 14.1 µM (inactive).

Regarding `O=C(N/N=C/c1c[nH]c2ccccc12)c1cccc(O)c1`, in test [29], the AC50 is > 52 µM (inactive).

`CC(C(=O)Nc1ccccn1)N(c1ccccc1Cl)S(C)(=O)=O` (configuration not stated): the EC50 in test [30] was 10 µM (inconclusive).

A word on the EC50: it is the concentration needed to bring the measured effect to its halfway point. The term AC50 denotes the concentration at which the activity in the assay is half-maximal. In general, IC50 refers to the concentration needed to halve the response being measured. The CC50 is the concentration at which the toxic effect on the cells reaches its halfway point.
